Consider three compounds from patent US20130338216A1, “DEUTERATED AND/OR FLUORINATED TAXANE DERIVATIVES” (NEKTAR THERAPEUTICS, priority 2010, published 2013).

One series has as its system boiled liver microsomes. The experiment in a line: Stability in boiled liver microsomes (control incubation). In kind it is in vitro ADME. Here is the method:
(§1) Methods: Previously frozen human liver microsomes (mixed gender pool; Xenotech H0630) were thawed in a 37° C. water bath and put on ice immediately after thawing. […] The incubation mixture (500 μL) was prepared in individual silanized tube (CTS-13100) for each time point and for each test article. Incubation was terminated by adding 500 μL cold water:acetonitrile 1:1 (v/v) spiked with 400 nM paclitaxel (internal standard) to the tube. […] The slope of the linear regression from log percentage remaining versus incubation time relationships (−k) was used in the calculation of intrinsic clearance: Intrinsic clearance (CLint)=k*(μL incubation/mg of microsomal protein).
Background: Liver microsomes are a subcellular fraction often used to study metabolism.

Series [1] in a line: In vitro metabolic stability in human liver microsomes. In kind it is in vitro ADME. Particulars: both sexes, pH 7.4; human liver microsomes 0.5 mg/mL, 1 μM test article, up to 30 minutes, 37° C.; read-out: intrinsic clearance rate. Here is the method: as §1
Series [2] concerns cytochrome P450 CYP3A4 and CYP3A5. The settings on record: by cytochrome P450 CYP3A4 and CYP3A5 isoenzymes; cited from earlier work.
A further series deals with NCI-H460 cell line. The experiment in a line: In vitro cytotoxicity, CellTiter-Glo cell viability, NCI-H460. Format: cell-based. Particulars: Homo sapiens, 72 hours of exposure. Here is the method: (§2) Experimental Procedure: NCI-H460, A549, and MDA-MB-231 cell lines were obtained from ATCC and cultured in RPMI-1640 medium supplemented with 2 mM L-glutamine dipeptide and 10% fetal bovine serum (FBS). For assays, cells were seeded in 96-well plates at 5,000 cells per well in RMPI-1640 medium supplemented with 2 mM L-glutamine dipeptide and 10% FBS. All cells were seeded in a total volume of 50 μL, and placed in a 37° C. humidified 5% CO2 cell culture incubator overnight. […] Cell viability was assessed using the CellTiter-Glo Luminescent Cell Viability Assay (Promega) according to the manufacturer's directions. Briefly, plates were removed from the incubator and placed on the bench at room temperature for 30 minutes. Plates were not stacked. Following the 30 minute incubation period at room temperature, 100 μL of CellTiter-Glo reagent were added to each well on the plate and mixed for two minutes, followed by a further ten minutes incubation at room temperature. Luminescence was then recorded using a PerkinElmer Microbeta scintillation and luminescence counter (TriLux). At the same time as drug exposure, a CellTiter-Glo assay was carried out on one plate of each cell line to obtain 0 hr counts for the assay. Following a 72 hour exposure to drugs, a CellTiter-Glo assay was performed on all remaining plates.
(In general: ATP-based viability assays read luminescence as a measure of living cells.)

For the next series, the system named is A549 cell line. Put plainly: In vitro cytotoxicity, CellTiter-Glo cell viability, A549. Format: cell-based. The settings on record: Homo sapiens, 72 hours of exposure. Here is the method:
as §2

In a further series the test system is MDA-MB-231 cell line. Put plainly: In vitro cytotoxicity, CellTiter-Glo cell viability, MDA-MB-231. Format: cell-based. Particulars: Homo sapiens, 72 hours of exposure. Here is the method:
as §2

Series [3] in a line: Maximum tolerated dose (MTD) study in athymic mice. Particulars: for MTD at 30 day: female, athymic nu/nu, mouse, in vivo, iv, athymic nu/nu mice.
Description: Mice were observed daily for clinical signs and body weights were recorded on days 1-5, 7, 9, 11, 13, and then biweekly until the end of study. All procedures were conducted in compliance with IACUC requirements. Compound dosing was terminated for any group in which mean weight loss exceeded 20% or >10% of animals died. Moribund animals were euthanized and all animals were euthanized at end of study (day 30).

SMILES strings stand for the structures.

Turning to `CO[C@H]1C(=O)[C@]2(C)[C@@H](OC)C[C@H]3OC[C@@]3(OC(C)=O)[C@H]2[C@H](OC(=O)c2ccccc2)[C@]2(O)C[C@H](OC(=O)[C@H](O)[C@@H](NC(=O)OC(C)(C)C)c3ccccc3)C(C)=C1C2(C)C` [Cabazitaxel], the “docetaxel formation after incubation with boiled liver microsomes” value in the series on boiled liver microsomes is reported as “not observed”. Further, the “stability during incubation with boiled liver microsomes” value with boiled liver microsomes (1 μM, up to 30 minutes) is given as “fairly stable”. For the same compound, the microsomal CLint at 1 μM in series [1] turned out to be 410 µL/min/mg. In series [2], the “extensively metabolized in the liver” value is above 95%.

Consider `CC(=O)O[C@@]12CO[C@@H]1C[C@H](O)[C@@]1(C)C(=O)[C@H](O)C3=C(C)[C@@H](OC(=O)[C@H](O)[C@@H](NC(=O)OC(C)(C)C)c4ccccc4)C[C@@](O)([C@@H](OC(=O)c4ccccc4)[C@H]21)C3(C)C` [Docetaxel, reference compound], for which the IC50 – broadly, the midpoint of a concentration-inhibition curve – is 3.52 nM in the series on NCI-H460 cell line, 1.82 nM with A549 cell line and 35.2 nM with MDA-MB-231 cell line.

On to `[2H]C([2H])([2H])C(OC(=O)N[C@@H](c1ccccc1)[C@@H](O)C(=O)O[C@H]1C[C@@]2(O)[C@@H](OC(=O)c3ccccc3)C3C(C)(C(=O)[C@H](O)C(=C1C)C2(C)C)[C@@H](O)CC1OC[C@]13OC(C)=O)(C([2H])([2H])[2H])C([2H])([2H])[2H]` (stereo partly drawn) [d9-Docetaxel], for which the IC50 was 2.68 nM in the series on NCI-H460 cell line, 1.6 nM with A549 cell line and 25.2 nM with MDA-MB-231 cell line. Further, the “Treatment-Related Deaths” value in series [3] (Group 1, 10 mg/kg iv, qwk x 3, N 5) was 0; in series [3] (Group 2, 20 mg/kg iv, qwk x 3, N 5), 0; in series [3] (Group 3, 40 mg/kg iv, qwk x 3, N 5), 0; in series [3] (Group 4, 7.5 mg/kg iv, qwk x 3 in Table 2, N 5) it was 0; in series [3] (Group 5, 15 mg/kg iv, qwk x 3 in Table 2, N 5), 0; in series [3] (Group 6, 30 mg/kg iv, qwk x 3 in Table 2, N 5), 2. The “BW Nadir” value is −5.6% in series [3] (Group 2, 20 mg/kg iv, qwk x 3); −21.9% in series [3] (Group 3, 40 mg/kg iv, qwk x 3); −10.6% in series [3] (Group 4, 7.5 mg/kg iv, qwk x 3); −12.3% in series [3] (Group 5, 15 mg/kg iv, qwk x 3); −29.6% in series [3] (Group 6, 30 mg/kg iv, qwk x 3). For the same compound, in series [3] (Group 6, 30 mg/kg iv, qwk x 3), the “Mean Day of Death” value is on record as 11.5. Also, the MTD (usually the highest dose tested that stayed within the study's limit of toxicity) at 30 day was around 15 mg/kg in series [3] (q3d×3, iv) and around 30 mg/kg in series [3] (qwk×3, iv).
